Laboratory results from ChEMBL document CHEMBL4152361, “Synthesis of oxidative metabolites of CRA13 and their analogs: Identification of CRA13 active metabolites and analogs thereof with selective CB2R affinity” (Bioorg Med Chem, 2018).

Legend:
Cannabinoid receptor 2 [1] = molecular target: T1, Cannabinoid receptor 2 (Homo sapiens, UniProt P34972); assay: Displacement of [3H]CP55940 from membrane bound human CB2 receptor at 10 uM after 1 hr by beta scintillation counting method relative to control
T1 sequence (P34972 whole entry): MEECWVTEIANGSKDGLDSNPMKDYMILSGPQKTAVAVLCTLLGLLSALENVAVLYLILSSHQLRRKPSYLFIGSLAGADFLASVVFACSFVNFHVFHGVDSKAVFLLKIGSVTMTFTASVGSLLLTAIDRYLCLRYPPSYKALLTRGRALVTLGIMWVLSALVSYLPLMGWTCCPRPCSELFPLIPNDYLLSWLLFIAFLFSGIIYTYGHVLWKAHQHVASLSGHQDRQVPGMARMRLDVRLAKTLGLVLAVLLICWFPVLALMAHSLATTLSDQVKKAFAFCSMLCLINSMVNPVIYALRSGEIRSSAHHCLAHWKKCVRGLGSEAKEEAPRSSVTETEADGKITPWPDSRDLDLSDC

Cannabinoid receptor 2 [2] = molecular target: T1, Cannabinoid receptor 2; assay: Displacement of [3H]CP55940 from membrane bound human CB2 receptor after 1 hr by beta scintillation counting method
Cannabinoid receptor 1 [3] = molecular target: T2, Cannabinoid receptor 1 (Homo sapiens, UniProt P21554); assay: Displacement of [3H]SR141716A from membrane bound human CB1 receptor after 1 hr by beta scintillation counting method
T2 sequence (P21554 whole entry): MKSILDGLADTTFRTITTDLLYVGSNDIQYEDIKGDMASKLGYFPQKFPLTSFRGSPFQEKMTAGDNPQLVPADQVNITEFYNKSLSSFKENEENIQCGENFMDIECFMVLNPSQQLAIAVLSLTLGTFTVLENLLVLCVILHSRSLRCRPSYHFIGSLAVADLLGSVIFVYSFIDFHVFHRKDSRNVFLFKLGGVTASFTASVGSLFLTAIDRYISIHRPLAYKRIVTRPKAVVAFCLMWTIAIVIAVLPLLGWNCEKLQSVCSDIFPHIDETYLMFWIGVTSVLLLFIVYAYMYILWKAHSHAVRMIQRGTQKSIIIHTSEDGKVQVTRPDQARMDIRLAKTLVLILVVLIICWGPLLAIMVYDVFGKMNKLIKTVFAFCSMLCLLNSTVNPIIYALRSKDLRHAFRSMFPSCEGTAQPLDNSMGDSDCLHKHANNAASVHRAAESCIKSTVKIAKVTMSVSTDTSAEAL

Cannabinoid receptor 1 [4] = molecular target: T2, Cannabinoid receptor 1; assay: Displacement of [3H]SR141716A from membrane bound human CB1 receptor at 10 uM after 1 hr by beta scintillation counting method relative to control
Homo sapiens [5] = organism: Homo sapiens; assay: Selectivity ratio of compound effect for displacement of [3H]CP55940 from membrane bound human CB2 receptor at 10 uM to compound effect for displacement of [3H]SR141716A from membrane bound human CB1 receptor at 10 uM
Cannabinoid receptor 1 [6] = molecular target: T2, Cannabinoid receptor 1; assay: Displacement of [3H]SR141716A from membrane bound human CB1 receptor at 100 uM after 1 hr by beta scintillation counting method relative to control
Cannabinoid receptor 2 [7] = molecular target: T1, Cannabinoid receptor 2; assay: Displacement of [3H]CP55940 from membrane bound human CB2 receptor at 100 uM after 1 hr by beta scintillation counting method relative to control
Homo sapiens [8] = organism: Homo sapiens; assay: Selectivity ratio of IC50 for displacement of [3H]SR141716A from membrane bound human CB1 receptor to IC50 for displacement of [3H]CP55940 from membrane bound human CB2 receptor
Homo sapiens [9] = organism: Homo sapiens; assay: Selectivity ratio of compound effect for displacement of [3H]SR141716A from membrane bound human CB1 receptor at 100 uM to compound effect for displacement of [3H]CP55940 from membrane bound human CB2 receptor at 100 uM

| Compound | inhibition (Cannabinoid receptor 2 [1]) [%] | IC50 (Cannabinoid receptor 2 [2]) [µM] | IC50 (Cannabinoid receptor 1 [3]) [µM] | inhibition (Cannabinoid receptor 1 [4]) [%] | Selectivity ratio (Homo sapiens [5]) | inhibition (Cannabinoid receptor 1 [6]) [%] | inhibition (Cannabinoid receptor 2 [7]) [%] | Ratio IC50 (Homo sapiens [8]) | Selectivity ratio (Homo sapiens [9]) |
| --- | --- | --- | --- | --- | --- | --- | --- | --- | --- |
| O=C(c1cccc2ccccc12)c1ccc(OCCCCCCO)c2ccccc12 | 46.9 | > 10 | > 10 | 42.6 | 1.1 |  |  |  |  |
| COC(=O)CCCOc1ccc(C(=O)c2cccc3ccccc23)c2ccccc12 | 96.9 | 1.69 | 14.1 | 43.1 | 2.25 | 68.8 | 101 | 8.36 |  |
| O=C(c1cccc2ccccc12)c1ccc(OCCCCCO)c2ccccc12 | 75.3 | 1.08 | > 10 | 35.8 | 2.1 |  |  | > 9.26 |  |
| O=C(O)CCCCOc1ccc(C(=O)c2cccc3ccccc23)c2ccccc12 | 36.6 | 12.6 | > 100 | 13 | 2.81 | 20.5 | 52.1 | > 7.92 |  |
| O=C(O)CCCOc1ccc(C(=O)c2cccc3ccccc23)c2ccccc12 |  | > 100 | > 100 |  |  | 16 | 5.36 |  | 2.99 |
| COC(=O)CCCCOc1ccc(C(=O)c2cccc3ccccc23)c2ccccc12 | 11.9 | 47.7 | > 100 | 4.44 | 2.69 | 36.5 | 85.6 | > 2.1 |  |
| O=C(c1cccc2ccccc12)c1ccc(OCCCCO)c2ccccc12 | 91.7 | 5.05 | 17.9 | 31.2 | 2.93 | 72 | 89.9 | 3.55 |  |
| O=C(c1cccc2ccccc12)c1ccc(OCCCO)c2ccccc12 | 37.4 | 14.7 | 100 | 21.3 | 1.76 | 55.6 | 78.5 | 6.81 |  |
| CCCCCOc1ccc(C(=O)c2cccc3ccccc23)c2ccccc12 | 64.2 | 5.3 |  | 64.2 |  |  |  |  |  |
